No end group written: not given here.

The values that follow come from patent US9359406B2, “Vaccine for a therapeutic or a prophylactic treatment of myasthenia gravis” (CuraVac Inc., priority 2006, dated 2016).

One experiment concerns pathogenic antibodies. In words: Pathogenic antibodies level in rats given B-peptide and T-peptide alone or together. It counts as in vivo. The settings on record: result in words. On the procedure:
As previously described, the peptide RhCA 67-16 also called herein B-peptide and the peptide RhCA 611-001 also referred herein T-peptide were tested alone on rats.

Experiment [1] has as its system experimental autoimmune myasthenia gravis (EAMG). In words: Example 3: EAMG induced with purified Torpedo AChR in Lewis rats vaccinated with T-peptide, B-peptide or both. It counts as in vivo. The settings on record: immunized three times. From the text: To evaluate whether vaccination with T-peptide together with B-peptide with an hydrocarbon group causes a different effect on experimental autoimmune myasthenia gravis (EAMG) than either B with an hydrocarbon group and T-peptide alone and separately, Lewis rats were immunized three times with keyhole limpet hemacyanin (KLH) or T-peptide or B-peptide with an hydrocarbon group coupled to KLH either alone or in combination. EAMG was then induced with purified Torpedo AChR and disease was monitored.

Experiment [2] deals with Experimental Autoimmune Myasthenia Gravis (EAMG). The settings on record: cited from earlier work.

For “NH2-Phe-Asn-Ser-Thr-Ile-Ile-Gly-Trp-Ile-Pro-Ala-Lys-Pro-His-Ile-Asn (H-FNSTIIGWIPAKPHIN; also: Trp8 carries at least one 2,4,6-trimethoxybenzyl group) [RhCA 67-16]”, the pathogenic antibodies level result with pathogenic antibodies is reported as “significant decrease”. In addition, in experiment [1], the “Average Severity” value was 1.33 ± 0.55; the “EAMG Incidence (%)” value is on record as 55.56%; the “Mortality (%)” value was determined as 22.22%; the “Severity 0, number of rats” value worked out at 4. In experiment [1], the “Severity 1, number of rats” value was 2; the “Severity 2, number of rats” value turned out to be 1; the “Severity 4, number of rats” value was 2. Besides, in experiment [2] (peptide conjugated to KLH, controls 90%), the “incidence of the disease in vaccinated animals” value is on record as 25%. For the same substance, the “clinical severity scoring in animals with disease, average” value in experiment [2] (peptide conjugated to KLH, positive controls 3.5) was 1.0.
As for “NH2-Tyr-Phe-Ser-Arg-Ile-Ile-Gln-Lys-Gln-Phe-Gly-His-Val-Asn-Asn-Gly-Lys (H-YFSRIIQKQFGHVNNGK) [RhCA 611-001, peptide complementary to residues 100-116 of the α-chain of the AChR]”, the pathogenic antibodies level result in the experiment with pathogenic antibodies is “significant decrease”. Further, in experiment [1], the “Average Severity” value worked out at 1.22 ± 0.55; the “EAMG Incidence (%)” value turned out to be 55.56%; the “Mortality (%)” value amounted to 22.22%; the “Severity 0, number of rats” value is 4. Further, in experiment [1], the “Severity 1, number of rats” value turned out to be 3 and the “Severity 4, number of rats” value was determined as 2. In addition, in experiment [2] (Lewis rats, result in words), the “clinical outcome after immunization” value was “marked clinical improvement, lowered mortality and preservation of AChR levels on muscles”.
